Reference: patent US6251893A, “Bicyclic piperidine and piperazine compounds having 5-HT6 receptor affinity” (NPS Allelix Corp., priority 1998, dated 2001)

What was measured:
5-HT2A receptor = 5-HT2A receptor (Homo sapiens, UniProt P28223); test: Binding to 5-HT2A receptor (selectivity); parameters: dose or concentration left out as unconfirmed; conditions: selectivity versus 5-HT6; read-out: percent inhibition for the 5-HT2A receptor
5HT2C receptor = molecular target: T1, 5HT2C receptor (Homo sapiens, UniProt P28335); test: Binding to 5HT2C receptor (selectivity); conditions: selectivity versus 5-HT6; read-out: percent inhibition for the 5HT2C receptor
T1 sequence (P28335 33-458): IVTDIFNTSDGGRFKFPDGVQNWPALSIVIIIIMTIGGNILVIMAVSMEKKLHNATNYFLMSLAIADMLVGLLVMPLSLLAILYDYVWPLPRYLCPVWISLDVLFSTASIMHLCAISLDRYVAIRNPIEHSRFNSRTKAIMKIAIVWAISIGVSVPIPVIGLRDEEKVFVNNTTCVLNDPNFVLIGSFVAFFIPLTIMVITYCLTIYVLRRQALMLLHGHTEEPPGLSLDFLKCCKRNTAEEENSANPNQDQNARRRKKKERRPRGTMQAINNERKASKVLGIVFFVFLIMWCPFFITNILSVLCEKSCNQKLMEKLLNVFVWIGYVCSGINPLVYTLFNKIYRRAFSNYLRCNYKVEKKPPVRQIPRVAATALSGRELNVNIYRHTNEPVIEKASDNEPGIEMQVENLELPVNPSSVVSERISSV

5-HT7 receptor = 5-HT7 receptor (Homo sapiens, UniProt P34969); test: Binding to 5-HT7 receptor (selectivity); parameters: dose or concentration left out as unconfirmed; conditions: selectivity versus 5-HT6; read-out: percent inhibition for the 5-HT7 receptor
Chain of 5-HT7 receptor (P34969 whole entry): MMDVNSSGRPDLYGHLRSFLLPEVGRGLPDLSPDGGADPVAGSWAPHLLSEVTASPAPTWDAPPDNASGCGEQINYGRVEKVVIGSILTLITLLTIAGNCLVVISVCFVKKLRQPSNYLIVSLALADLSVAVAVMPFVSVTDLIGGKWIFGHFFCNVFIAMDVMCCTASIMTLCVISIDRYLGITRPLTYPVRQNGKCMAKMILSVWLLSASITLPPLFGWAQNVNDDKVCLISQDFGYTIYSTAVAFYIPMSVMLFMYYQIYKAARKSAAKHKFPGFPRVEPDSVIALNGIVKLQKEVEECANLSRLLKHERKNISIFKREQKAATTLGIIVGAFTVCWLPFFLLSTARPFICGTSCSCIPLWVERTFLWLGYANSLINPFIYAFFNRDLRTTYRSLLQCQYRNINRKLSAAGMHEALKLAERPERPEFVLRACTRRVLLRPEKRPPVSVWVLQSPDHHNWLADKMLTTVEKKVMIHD

human 5HT6 receptor [1] = molecular target: T2, human 5HT6 receptor (Homo sapiens, UniProt P50406); test: Binding affinity for the 5-HT6 receptor (3H-LSD displacement); parameters: expressed in transfected cells; conditions: 100 nM test compound; 3H-LSD (2 nM); 60 minute incubation at 37° C; read-out: percent inhibition of radioligand binding for the 5-HT6 receptor
T2 sequence (P50406 whole entry): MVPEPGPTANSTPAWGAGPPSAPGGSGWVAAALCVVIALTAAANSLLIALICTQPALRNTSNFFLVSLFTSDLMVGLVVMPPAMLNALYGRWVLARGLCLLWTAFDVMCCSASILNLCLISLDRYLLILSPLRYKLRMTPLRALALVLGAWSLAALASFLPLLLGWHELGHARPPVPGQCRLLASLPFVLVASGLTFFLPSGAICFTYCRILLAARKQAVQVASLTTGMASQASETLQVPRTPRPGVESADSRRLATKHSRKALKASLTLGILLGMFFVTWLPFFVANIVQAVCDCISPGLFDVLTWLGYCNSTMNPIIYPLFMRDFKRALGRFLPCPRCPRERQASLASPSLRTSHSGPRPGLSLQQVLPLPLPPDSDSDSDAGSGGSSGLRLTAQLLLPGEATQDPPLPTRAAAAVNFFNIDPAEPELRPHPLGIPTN
Protocol: Binding Affinity for the 5-HT6 Receptor
The assay protocol generally entailed the incubation of membranes prepared from cells expressing the 5-HT6 receptor with ^3 H-LSD (2 nM). Increasing levels of the test compound were incubated with the radioligand and the membrane homogenates prepared from the recombinant cells. After a 60 minute incubation at 37° C., the incubation was terminated by vacuum filtration. The filters were washed with buffer and the filters were counted for radioactivity using liquid scintillation spectrometry. […] Concentrations ranging from 10^-11 M to 10^-5 M of the test compound were evaluated. […] Affinity for the 5-HT6 receptor is expressed as the amount (in percent) of binding of the radioligand that is inhibited in the presence of 100 nM of test compound. A greater percent inhibition indicates greater affinity for the 5-HT6 receptor.

human 5HT6 receptor [2] = molecular target: T2, human 5HT6 receptor; test: Functional assay: reversal of serotonin-stimulated adenyl cyclase activity (cAMP) in HEK 293 cells stably expressing the human 5HT6 receptor; format: cell-based; parameters: cAMP functional assay in whole cells; conditions: 100 nM and 10 μM test compound with serotonin
Protocol: The 5HT6 receptor responds to serotonin and other agonists by increasing adenyl cyclase mediated production of cyclic AMP. Particular test compounds were assayed for their effect on adenyl cyclase activity using the procedure described below.
Compounds acting as antagonists at the 5HT6 receptor will antagonize the agonist effect of serotonin and thus, will block the serotonin-inducedincrease in adenyl cyclase activity.
HEK 293 cells stably expressing the human 5HT6 receptor were plated in 6 well plates in DMEM (Dulbecco's Modified Eagle Medium)/F12 (Nutrient Mixture F12-Ham) media with 10% FCS (fetal calf serum) and G418 (Geneticen Disulfate, 500 ug/ml), and incubated at 37° C. in a CO2 incubator. The cells were allowed to grow to about 70% confluence before use in the assay.
The culture medium of each well was removed, and the wells were washed once with serum free media. Then 2 ml of SFM+IBMX medium (SFM with 0.5 mM IBMX, 3-isobutyl-1-methylxanthine, 0.1% ascorbic acid and 10 mM pargyline) was added to each well and the wells were incubated at 37° C. for 10 min. Following incubation, the SFM+IBMX medium was removed from each well and fresh SFM+IBMX media was added to the wells separately with one of a) serotonin (1 μM final concentration); b) test compound (100 nM and 10 μM, to test for agonist activity); and c) test compound (100 nM and 10 μM) along with serotonin ([…], to test for antagonist activity). Basal adenyl cyclase activity was determined from wells with only SFM+IBMX media added.
The cells were then incubated at 37° C. for 30 minutes in a CO2 incubator. Following incubation, the media were removed from each well. The wells were washed once with 1 ml of PBS (phosphate buffered saline). Each well was then treated with 1 mL cold 95% ethanol:5 mM EDTA (2:1) at 4° C. for 1 hour. The cells from each well were then scraped and transferred into individual Eppendorf tubes. The tubes were centrifuged for 5 minutes at 4° C., and the supernatants were transferred to new Eppendorf tubes and stored at 4° C. The pellets were discarded and the supernatants were stored at 4° C. until assayed for cAMP concentration. cAMP content for each extract was determined in duplicate by EIA (enzyme-immunoassay) using the Amersham Biotrak cAMP EIA kit (Amersham RPN 225). Final results were expressed as % basal response for agonists and % reversal of serotonin response for antagonists.
The total stimulation of adenyl cyclase by serotonin (So) was determined as the difference in concentration of cAMP in the serotonin-treated cells (Cd) and the basal-treated cells (Cf).
The net stimulation (S) of basal adenyl cyclase by an agonist test compound was determined as the difference in cAMP concentration in the drug-treatedcell (C) and the basal-treated cells (Cf).
The net stimulation (Ss) of basal adenyl cyclase by serotonin in the presence of an antagonist test compound was determined as the difference in cAMP concentration in the serontonin-drug-treated cells (Cs) and the basal-treated cells (Cf).
The ability of the antagonist test compound to reverse the serotonin stimuation of adenyl cyclase activity (% reversal, % R) was determined by the formula: […]

Chain of 5-HT2A receptor (P28223 whole entry): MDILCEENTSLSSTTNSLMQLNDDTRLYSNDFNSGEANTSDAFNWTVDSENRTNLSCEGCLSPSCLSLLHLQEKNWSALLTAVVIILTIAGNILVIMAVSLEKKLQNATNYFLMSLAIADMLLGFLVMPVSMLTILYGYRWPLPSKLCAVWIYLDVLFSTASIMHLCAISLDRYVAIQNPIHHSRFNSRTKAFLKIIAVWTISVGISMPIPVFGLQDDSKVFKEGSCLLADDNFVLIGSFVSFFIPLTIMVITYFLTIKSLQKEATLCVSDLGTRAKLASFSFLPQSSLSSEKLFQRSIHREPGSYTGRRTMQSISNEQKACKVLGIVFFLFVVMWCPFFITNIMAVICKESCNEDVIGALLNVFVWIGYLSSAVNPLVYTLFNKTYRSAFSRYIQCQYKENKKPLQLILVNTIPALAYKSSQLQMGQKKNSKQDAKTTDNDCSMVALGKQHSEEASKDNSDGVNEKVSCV

Structure (SMILES) | inhibition (5-HT2A receptor) [%] | inhibition at 0.1 µM (5HT2C receptor) [%] | inhibition (5-HT7 receptor) [%] | inhibition at 0.1 µM (human 5HT6 receptor [1]) [%] | reversal of serotonin stimulation of adenyl cyclase (5-HT6 receptor antagonism) (human 5HT6 receptor [2])
O=S(=O)(c1cccc2ccccc12)n1cc(N2CCN3CCCC3C2)c2ccccc21 (racemic) [Example 6b, 3-[(6-R,S)-1,4-Diaza[4.3. 0]bicyclonon-4-yl]-1-(1-naphthalenesulfonyl)indole] | < 20 | < 20 | < 20 | > 80 | able to reverse the serotonin stimulation of adenyl cyclase
O=S(=O)(c1ccccc1)n1cc(N2CCN3CCCC3C2)c2ccccc21 (racemic) [Example 6j, 3-[(6-R,S)-1,4-Diaza[4.3.0]bicyclonon-4-yl]-1-(phenylsulfonyl)indole] | < 20 | < 20 | < 20 | > 80 | able to reverse the serotonin stimulation of adenyl cyclase
O=S(=O)(c1ccccc1)n1cc(C2=CCN3CCCC3C2)c2cc(F)ccc21 (racemic) [Example 6x, 5-Fluoro-3-[(8a-R,S)-1,2,3,5,8,8a-hexahydro-7-indolizinyl]-1-phenylsulfonylindole] | < 20 | < 20 | < 20 | > 80 | able to reverse the serotonin stimulation of adenyl cyclase
O=S(=O)(c1cccc2ccccc12)n1cc(C2=CCN3CCCC3C2)c2cc(F)ccc21 (racemic) [Example 6y, 5-Fluoro-3-[(8a-R,S)-1,2,3,5,8,8a-hexahydro-7-indolizinyl]-1-(1-naphthalenesulfonyl)indole] | < 20 | < 20 | < 20 | > 80 | able to reverse the serotonin stimulation of adenyl cyclase
O=S(=O)(c1ccc2ccccc2c1)n1cc(C2CCN3CCCC3C2)c2cc(F)ccc21 (single isomer, unassigned; isomer i) [Example 10a, 5-Fluoro-3-[(7R or 7S)(8a-R,S)-octahydrohydro-7-indolizinyl]-1-(2-naphthalenesulfonyl)indole,Isomer I] |  |  |  | > 80 | able to reverse the serotonin stimulation of adenyl cyclase
O=S(=O)(c1ccccc1)n1cc(C2CCN3CCCC3C2)c2cc(F)ccc21 (single isomer, unassigned; isomer i) [Example 10c, 5-Fluoro-3-[(7R or 7S)(8a-R,S)-octahydrohydro-7-indolizinyl]-1-phenylsulfonylindole, Isomer I] |  |  |  | > 80 | able to reverse the serotonin stimulation of adenyl cyclase
O=S(=O)(c1cccc2ccccc12)n1cc(C2CCN3CCCC3C2)c2cc(F)ccc21 (single isomer, unassigned; isomer i) [Example 10e, 5-Fluoro-3-[(7R or 7S)(8a-R,S)-octahydrohydro-7-indolizinyl]-1-(1-napthalenesulfonyl)indole, Isomer I] |  |  |  | > 80 | able to reverse the serotonin stimulation of adenyl cyclase
O=S(=O)(c1ccc2ccccc2c1)n1cc(C2CCN3CCCC3C2)c2cc(F)ccc21 (single isomer, unassigned; isomer ii) [Example 10b, 5-Fluoro-3-[(7R or 7S)(8a-R,S)-octahydrohydro-7-indolizinyl]-1-(2-naphthalenesulfonyl)indole, Isomer II] | < 20 | < 20 | < 20 |  | able to reverse the serotonin stimulation of adenyl cyclase
O=S(=O)(c1ccccc1)n1cc(C2CCN3CCCC3C2)c2cc(F)ccc21 (single isomer, unassigned; isomer ii) [Example 10d, 5-Fluoro-3-[(7R or 7S)(8a-R,S)-octahydrohydro-7-indolizinyl]-1-phenylsulfonylindole, Isomer II] |  |  |  |  | able to reverse the serotonin stimulation of adenyl cyclase
O=S(=O)(c1cccc2ccccc12)n1cc(C2CCN3CCCC3C2)c2cc(F)ccc21 (single isomer, unassigned; isomer ii) [Example 10f, 5-Fluoro-3-[(7R or 7S)(8a-R,S)-octahydrohydro-7-indolizinyl]-1-(1-naphthalenesulfonyl)indole,Isomer II] | < 20 | < 20 | < 20 |  | able to reverse the serotonin stimulation of adenyl cyclase
